Tests used:
prostate = experiment: 10-day prostate involution study in rats; format: in vivo, rat; settings: for Mean (±SEM) prostate weights: 10 days, intact rats
Protocol: Enzalutamide and Compound A were orally administered once daily at the indicated doses. After 10 days of treatment, the prostate tissue from each rat was isolated and weighed. Treatment groups (n=5 per group) were compared by one way ANOVA. Note: ns: not significant, *: p<0.05, **: p≤0.01.
To substantiate the on-target mechanism of Compound A, a prostate involution study was conducted in rats. […] Twenty-four hours after the last dose, the rats were euthanized, and the prostate organs were isolated and weighed.

AR D891H = target: T1, AR D891H (Homo sapiens, UniProt P10275, D891H); experiment: AR degradation in T-Rex-293 cell line, D891H (western blot); format: cell-based; settings: T-Rex-293, western blot
T1 construct: expressed in transfected cells; host or cells: T-REx-293
From the text: (§1) FIG. 3 is a graph showing Compound A's ability to degrade clinically relevant mutated forms AR.
(§2) To assess the ability of Compound A to degrade variants of the AR, vectors expressing wild-type AR or mutant AR proteins harboring clinically observed mutations in the ligand binding domain (13 with single amino acid changes or 4 with 2 amino acid changes) (Azad A. A., Volik S. V., Wyatt A. W., et al. Androgen receptor gene aberrations in circulating cell-free DNA: biomarkers of therapeutic resistance in castration-resistant prostate cancer. Clin Cancer Res. 2015; 21:2315-2324; Robinson D., Van Allen E. M., Wu Y. M., et al. Integrative clinical genomics of advanced prostate cancer. Cell. 2015; 161:1215-1228; Ledet E. M., Lilly M. B., Sonpavde G., et al. Comprehensive analysis of AR alterations in circulating tumor DNA from patients with advanced prostate cancer. Oncologist.

[1] = safety in healthy volunteers (food/PPI study)
From the text: The primary endpoints were AUCinf and Cmax. Additional parameters measured included AUClast and Tmax.
The study consisted of 2 independent cohorts: an open-label, randomized, 2-period, crossover Fed/Fasted Cohort to determine food effects; and an open-label, 2-period, fixed sequence PPI Cohort to evaluate interactions with esomeprazole.

AR H875Y/T878A = target: T2, AR H875Y/T878A (Homo sapiens, UniProt P10275, H875Y/T878A); experiment: AR degradation in T-Rex-293 cell line, H875Y/T878A; format: cell-based; settings: T-Rex-293, ELISA
T2 construct: expressed in transfected cells; host or cells: T-REx-293
From the text: as §1, §2

AR = target: T3, AR (Homo sapiens, UniProt P10275); experiment: poly-ubiquitination assay; format: cell-based; settings: with Compound A treatment
T3 sequence (P10275 1-920): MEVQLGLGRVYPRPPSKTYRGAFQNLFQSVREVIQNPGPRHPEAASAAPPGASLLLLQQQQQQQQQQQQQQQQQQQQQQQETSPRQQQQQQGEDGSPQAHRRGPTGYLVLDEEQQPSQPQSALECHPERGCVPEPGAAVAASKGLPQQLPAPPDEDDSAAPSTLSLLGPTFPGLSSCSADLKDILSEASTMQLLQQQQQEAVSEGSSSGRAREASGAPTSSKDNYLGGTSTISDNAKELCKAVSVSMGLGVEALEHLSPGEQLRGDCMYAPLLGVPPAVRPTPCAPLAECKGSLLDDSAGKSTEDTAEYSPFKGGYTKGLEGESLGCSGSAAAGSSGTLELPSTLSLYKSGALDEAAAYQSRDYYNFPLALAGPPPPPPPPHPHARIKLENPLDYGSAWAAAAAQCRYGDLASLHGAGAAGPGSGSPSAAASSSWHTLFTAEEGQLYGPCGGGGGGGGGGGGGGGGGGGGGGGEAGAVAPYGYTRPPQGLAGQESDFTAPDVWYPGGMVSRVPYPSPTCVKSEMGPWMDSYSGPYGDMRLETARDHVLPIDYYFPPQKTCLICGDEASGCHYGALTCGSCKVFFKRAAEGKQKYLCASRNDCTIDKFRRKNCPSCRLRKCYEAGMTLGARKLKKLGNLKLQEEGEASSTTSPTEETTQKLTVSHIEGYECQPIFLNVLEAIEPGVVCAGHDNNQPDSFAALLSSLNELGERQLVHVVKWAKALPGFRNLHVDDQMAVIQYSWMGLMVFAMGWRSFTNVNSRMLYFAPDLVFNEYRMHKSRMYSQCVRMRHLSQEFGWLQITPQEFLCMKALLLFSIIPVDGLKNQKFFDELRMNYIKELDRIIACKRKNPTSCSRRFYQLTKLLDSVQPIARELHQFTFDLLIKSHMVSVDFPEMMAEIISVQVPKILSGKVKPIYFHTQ

[2] = target: T4, AR (VCaP cells, AR amplification) (Homo sapiens, UniProt P10275); experiment: AR degradation assay and time course in VCaP cells; format: cell-based
T4 construct: endogenous in cells; host or cells: VCaP
T4 sequence (P10275 1-920): T3 sequence (P10275 1-920)
Protocol: FIG. 2 is an analysis of Compound A in in vitro AR degradation assays conducted in VCaP cells and LNCaP cancer cells that harbor AR amplification and the AR mutation (T878A) mutation, respectively.
To determine the pharmacological effect of Compound A in vitro, AR degradation assays were conducted in VCaP (vertebral-cancer of the prostate) cancer cells and LNCaP (lymph node carcinoma of the prostate) cancer cells that harbor AR amplification and the AR mutation (T878A) mutation, respectively.
To determine the pharmacological effect of Compound A in vitro, AR degradation assays were conducted in VCaP cells and LNCaP prostate cancer cells that harbor AR amplification and the AR mutation (T878A) mutation, respectively.

VCaP cells = experiment: VCaP cell proliferation in a high androgen environment (R1881); format: cell-based, human; settings: Compound A 300 nM vs enzalutamide 1,000 nM, R1881 0.01 to 1 nM, 5 days
Protocol: Cell proliferation was determined using the CellTiter Glo® assay.

AR M750V = target: T5, AR M750V (Homo sapiens, UniProt P10275, M750V); experiment: AR degradation in T-Rex-293 cell line, M750V; format: cell-based; settings: T-Rex-293, ELISA
T5 construct: expressed in transfected cells; host or cells: T-REx-293
From the text: as §1, §2

[3] = Fed/Fasted Cohort, 200 mg, 14 healthy participants
[4] = healthy volunteer study, both cohorts

T2 sequence (P10275 whole entry H875Y/T878A): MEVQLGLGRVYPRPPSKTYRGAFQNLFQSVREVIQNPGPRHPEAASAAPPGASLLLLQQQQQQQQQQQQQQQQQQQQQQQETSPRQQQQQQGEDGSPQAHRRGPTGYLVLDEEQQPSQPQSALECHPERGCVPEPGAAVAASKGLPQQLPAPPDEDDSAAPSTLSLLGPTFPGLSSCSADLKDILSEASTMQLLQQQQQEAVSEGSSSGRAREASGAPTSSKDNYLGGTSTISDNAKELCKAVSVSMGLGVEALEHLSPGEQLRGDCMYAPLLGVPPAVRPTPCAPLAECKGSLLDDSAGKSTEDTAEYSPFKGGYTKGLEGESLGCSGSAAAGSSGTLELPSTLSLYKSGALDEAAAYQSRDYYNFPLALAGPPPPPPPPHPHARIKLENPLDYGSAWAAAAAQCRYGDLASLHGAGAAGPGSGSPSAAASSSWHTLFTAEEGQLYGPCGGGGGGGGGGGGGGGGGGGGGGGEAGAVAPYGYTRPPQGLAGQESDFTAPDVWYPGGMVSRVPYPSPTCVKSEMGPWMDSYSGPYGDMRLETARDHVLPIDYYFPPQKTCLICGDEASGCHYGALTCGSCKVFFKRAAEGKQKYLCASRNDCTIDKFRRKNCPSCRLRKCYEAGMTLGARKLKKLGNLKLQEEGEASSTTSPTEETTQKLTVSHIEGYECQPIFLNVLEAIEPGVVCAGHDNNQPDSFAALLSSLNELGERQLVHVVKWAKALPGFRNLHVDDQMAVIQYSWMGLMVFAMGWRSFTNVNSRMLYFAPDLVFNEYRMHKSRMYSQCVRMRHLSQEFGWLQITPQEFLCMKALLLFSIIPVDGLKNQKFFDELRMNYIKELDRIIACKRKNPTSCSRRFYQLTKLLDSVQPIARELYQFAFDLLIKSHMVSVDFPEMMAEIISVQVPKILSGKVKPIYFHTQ
T1 sequence (P10275 whole entry D891H): as the sequence (P10275 whole entry H875Y/T878A) above, with Y875H, A878T, D891H counted along it
T5 sequence (P10275 whole entry M750V): as the sequence (P10275 whole entry H875Y/T878A) above, with M750V, Y875H, A878T counted along it

COc1cc(O[C@H]2C(C)(C)[C@H](NC(=O)c3ccc(N4CCC(CN5CCN(c6ccc(C(=O)N[C@H]7CCC(=O)NC7=O)c(F)c6)CC5)CC4)cc3)C2(C)C)ccc1C#N [Compound A, 4-(4-((1-(4-(((1R,3R)-3-(4-cyano-3-methoxyphenoxy)-2,2,4,4-tetramethylcyclobutyl)carbamoyl)phenyl)piperidin-4-yl)methyl)piperazin-1-yl)-N—((S)-2,6-dioxopiperidin-3-yl)-2-fluorobenzamide]
Mean (±SEM) prostate weights (prostate; 5 mg/kg/day orally): 673+105 mg
Mean (±SEM) prostate weights (prostate; 15 mg/kg/day orally): 384 ± 47 mg
Mean (±SEM) prostate weights (prostate; 45 mg/kg/day orally): 422 ± 56 mg
prostate weight reduction compared with enzalutamide (prostate; all doses tested (5, 15, 45 mg/kg/day)): reduced prostate weights to a greater degree at all doses tested
DC50 (AR D891H): 3.9 nM
severity of TEAEs ([1]; Fed/Fasted Cohort): All TEAEs were Grade 1
headache (TEAE) [1, 3]: 4 (28.6%) participants
participants reporting TEAEs [1, 3]: 5 (35.7%) participants
participants with at least one TEAE considered related to Compound A [1, 3]: 3 (21.4%) participants
TRAE dizziness ([1]; Fed/Fasted Cohort, Grade 1): 1 participant
TRAE fatigue ([1]; Fed/Fasted Cohort, Grade 1): 1 participant
TRAE headache ([1]; Fed/Fasted Cohort, Grade 1): 2 participants
TEAEs of Grade 3 or higher ([1]; PPI Cohort): no TEAEs of Grade 3 or higher
participants reporting TEAEs ([1]; PPI Cohort, 300 mg, 16 healthy participants): 8 (50.0%) participants
participants with Grade 2 events ([1]; PPI Cohort, pain in the extremity and CRP increased): 2 (12.5%) participants
tolerability of a single oral dose ([1]; healthy male participants, fasting, fed, or with esomeprazole): generally well tolerated
deaths, SAEs, discontinuations due to AEs [1, 4]: no deaths, SAEs, or participant discontinuations due to AEs
laboratory results, vital signs, physical examinations, 12-lead ECGs, C-SSRS [1, 4]: no clinically significant findings
DC50 (AR H875Y/T878A): 7.7 nM
ubiquitination of the AR (AR): significantly increased
DC50 ([2]; 24 hours of treatment): < 1 nM
Dmax ([2]; 24 hours of treatment): ≥ 94%
elimination of AR from the cell (time course) ([2]; by 6 hours): near complete elimination of AR
degradation of AR (time course) ([2]; within 2 hours of treatment): > 50%
antiproliferative effects vs enzalutamide (VCaP cells): more potent antiproliferative effects than enzalutamide
DC50 (AR M750V): 1.4 nM

From patent US20240180900A1, “COMPOUNDS AND METHODS FOR THE TARGETED DEGRADATION OF ANDROGEN RECEPTOR” (Arvinas Operations, Inc., priority 2022, published 2024)
